The source of these data is patent publication US20250122174A1 (Shenzhen Yuanli Shenwan Innovative Medicine Co., Ltd., priority 2022, published 2025).

The target of this assay is HPK1 (Homo sapiens (Human), UniProt Q92918). As to the kind of experiment: HPK1 Inhibition Assay (ADP-Glo kinase assay). It counts as biochemical. The settings on record: ATP 10 μM. On the procedure: A stock solution of 10 mM test compound was prepared in DMSO. The compound was prepared by 5-fold and 10-point serial dilutions with HPK1 kinase assay buffer. The HPK1 kinase assay buffer contained 40 mM Tris, pH 7.5; 20 mM MgCl2, 0.1 mg/ml BSA, and 50 μM DTT. 7.5 ng/μl of Active HPK1 (Promega, V4098) and 0.1 μg/ml MBP substrate protein were added to the reaction system. The final concentration of ATP in the HPK1 kinase reaction system was 10 μM. Serial diluted compounds were transferred to the reaction system and incubated at room temperature for 1 hr. 5 μL of ADP-Glo™ Reagent (Promega, V9101) was added and incubated for 40 min to stop the kinase reaction and deplete the unconsumed ATP. […] The luminescence was measured with a plate-reading luminometer.
Sequence of HPK1 (Q92918 1-346 limits assumed): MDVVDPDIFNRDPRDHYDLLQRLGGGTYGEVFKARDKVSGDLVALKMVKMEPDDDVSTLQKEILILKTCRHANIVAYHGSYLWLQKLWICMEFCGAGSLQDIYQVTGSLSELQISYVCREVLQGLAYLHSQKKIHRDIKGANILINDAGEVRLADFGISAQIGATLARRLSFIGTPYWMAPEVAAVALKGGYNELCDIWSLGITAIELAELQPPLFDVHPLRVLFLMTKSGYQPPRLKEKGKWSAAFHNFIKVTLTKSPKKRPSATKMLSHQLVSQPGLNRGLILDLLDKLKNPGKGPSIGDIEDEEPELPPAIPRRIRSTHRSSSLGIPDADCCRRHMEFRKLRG
For orientation: ADP-Glo turns the ADP formed in a reaction into a luminescent signal.
Turning to `COc1cccc(F)c1-n1nc(C(=O)Nc2ccc3c(nc(C)n3C)c2N2CC[C@H](N)C2)ccc1=O` [Example 66, (S)—N-(4-(3-aminopyrrolidin-1-yl)-1,2-dimethyl-1H-benzo[d]imidazol-5-yl)-1-(2-fluoro-6-methoxyphenyl)-6-oxo-1,6-dihydropyridazine-3-carboxamide], the IC50 (usually the point on the concentration scale where inhibition reaches its midpoint) is under 100 nM. Molecule `Cc1nc2c(N3CCC[C@@H](N)C3)c(NC(=O)c3ccc(=O)n(-c4c(F)cccc4F)n3)ccc2n1C` [Example 67, (R)—N-(4-(3-aminopiperidin-1-yl)-1,2-dimethyl-1H-benzo[d]imidazol-5-yl)-1-(2,6-difluorophenyl)-6-oxo-1,6-dihydropyridazine-3-carboxamide] came in with an IC50 of under 100 nM. The figure for `Cc1nc2c(N3C[C@@H](N)C[C@H]3CO)c(NC(=O)c3ccc(=O)n(-c4c(F)cccc4F)n3)ccc2n1C` [Example 68, N-(4-((2S,4S)-4-amino-2-(hydroxymethyl)amidazole-1-yl)-1,2-dimethyl-1H-benzo[d]amidazole-5-yl)-1-(2,6-difluorophenyl)-6-oxo-1,6-dihydropyridazine-3-carboxamide] is 100 to 1000 nM; for `Cc1nc2c(N3CCN(C)CC3)c(NC(=O)c3ccc(=O)n(-c4c(F)cccc4F)n3)ccc2n1C` [Example 69, 1-(2,6-difluorophenyl)-N-(1,2-dimethyl-4-(4-methylpiperazin-1-yl)-1H-benzo[d]imidazol-5-yl)-6-oxo-1,6-dihydropyridazine-3-carboxamide] it is 100 to 1000 nM; for `Cc1nc2c(N(C)[C@@H]3CCCNC3)c(NC(=O)c3ccc(=O)n(-c4c(F)cccc4F)n3)ccc2n1C` [Example 70, (R)-1-(2,6-difluorophenyl)-N-(1,2-dimethyl-4-(methyl(piperidin-3-yl)amino)-1H-benzo[d]imidazol-5-yl)-6-oxo-1,6-dihydropyridazine-3-carboxamide] it is under 100 nM. The value for `Cc1nc2c(N3CCNCC3)c(NC(=O)c3ccc(=O)n(-c4c(F)cccc4F)n3)ccc2n1C` [Example 71, 1-(2,6-difluorophenyl)-N-(1,2-dimethyl-4-(piperazin-1-yl)-1H-benzo[d]imidazol-5-yl)-6-oxo-1,6-dihydropyridazine-3-carboxamide] was under 100 nM; that for `Cc1nc2c(N3CC[C@H](N)C3)c(NC(=O)c3ccc(=O)n(-c4c(F)cccc4F)n3)ccc2n1C` [Example 72, (S)-N-(4-(3-aminopyrrolidin-1-yl)-1,2-dimethyl-1H-benzo[d]imidazol-5-yl)-1-(2,6-difluorophenyl)-6-oxo-1,6-dihydropyridazine-3-carboxamide] was under 100 nM; that for `Cc1nc2c(N3CC[C@@H](N)C3)c(NC(=O)c3ccc(=O)n(-c4c(F)cccc4F)n3)ccc2n1C` [Example 73, (R)-N-(4-(3-aminopyrrolidin-1-yl)-1,2-dimethyl-1H-benzo[d]imidazol-5-yl)-1-(2,6-difluorophenyl)-6-oxo-1,6-dihydropyridazine-3-carboxamide] was under 100 nM. In turn, `Cc1nc2c(N3CCC(N)CC3)c(NC(=O)c3ccc(=O)n(-c4c(F)cccc4F)n3)ccc2n1C` [Example 74, N-(4-(4-aminopiperidin-1-yl)-1,2-dimethyl-1H-benzo[d] 98 midazole-5-yl)-1-(2,6-difluorophenyl)-6-oxo-1,6-dihydropyridazine-3-carboxamide] gave an IC50 of under 100 nM. The figure for `Cc1nc2c(N3CCC(C)(N)CC3)c(NC(=O)c3ccc(=O)n(-c4c(F)cccc4F)n3)ccc2n1C` [Example 76, N-(4-(4-amino-4-methylpiperidin-1-yl)-1,2-dimethyl-1H-benzo[d]imidazol-5-yl)-1-(2,6-difluorophenyl)-6-oxo-1,6-dihydropyridazine-3-carboxamide] is under 100 nM. Regarding `Cc1nc2c(N3CC[C@](C)(N)C3)c(NC(=O)c3ccc(=O)n(-c4c(F)cccc4F)n3)ccc2n1C` [Example 77, (S)-N-(4-(3-amino-3-methylpyrrolidin-1-yl)-1,2-dimethyl-1H-benzo[d]imidazol-5-yl)-1-(2,6-difluorophenyl)-6-oxo-1,6-dihydropyridazine-3-carboxamide], the IC50 was under 100 nM.

`Cc1nc2c(N3CCC4(CC3)CNC4)c(NC(=O)c3ccc(=O)n(-c4c(F)cccc4F)n3)ccc2n1C` [Example 78, 1-(2,6-difluorophenyl)-N-(1,2-dimethyl-4-(2,7-diazaspiro[3.5]nonan-7-yl)-1H-benzo[d]imidazol-5-yl)-6-oxo-1,6-dihydropyridazine-3-carboxamide] had a concentration for half-maximal inhibition (IC50) of under 100 nM. In the case of `Cc1nc2c(N3CC4CNCC4C3)c(NC(=O)c3ccc(=O)n(-c4c(F)cccc4F)n3)ccc2n1C` (stereo not shown) [Example 79, 1-(2,6-difluorophenyl)-N-(4-(hexahydropyrrolo[3,4-c]pyrrol-2(1H)-yl)-1,2-dimethyl-1H-benzo[d]imidazol-5-yl)-6-oxo-1,6-dihydropyridazine-3-carboxamide], the IC50 was under 100 nM. As to `Cc1nc2c(N3C[C@H]4C[C@@H]3CN4)c(NC(=O)c3ccc(=O)n(-c4c(F)cccc4F)n3)ccc2n1C` [Example 80, N-(4-((1R,4R)-2,5-diazabicyclo[2.2.1]heptan-2-yl)-1,2-dimethyl-1H-benzo[d]imidazol-5-yl)-1-(2,6-difluorophenyl)-6-oxo-1,6-dihydropyridazine-3-carboxamide], the IC50 was under 100 nM. The value for `Cc1nc2c(N3CCNC4(CC4)C3)c(NC(=O)c3ccc(=O)n(-c4c(F)cccc4F)n3)ccc2n1C` [Example 81, 1-(2,6-difluorophenyl)-N-(1,2-dimethyl-4-(4,7-diazaspiro[2.5]octan-7-yl)-1H-benzo[d]imidazol-5-yl)-6-oxo-1,6-dihydropyridazine-3-carboxamide] was under 100 nM.

As for `Cc1nc2c(N3CC[C@H](O)C3)c(NC(=O)c3ccc(=O)n(-c4c(F)cccc4F)n3)ccc2n1C` [Example 82, (S)-1-(2,6-difluorophenyl)-N-(4-(3-hydroxypyrrolidin-1-yl)-1,2-dimethyl-1H-benzo[d]imidazol-5-yl)-6-oxo-1,6-dihydropyridazine-3-carboxamide], the IC50 is under 100 nM. For the molecule `Cc1nc2c(N3CCCC4(CNC4)C3)c(NC(=O)c3ccc(=O)n(-c4c(F)cccc4F)n3)ccc2n1C` [Example 84, 1-(2,6-difluorophenyl)-N-(1,2-dimethyl-4-(2,6-diazaspiro[3.5]nonan-6-yl)-1H-benzo[d]imidazol-5-yl)-6-oxo-1,6-dihydropyridazine-3-carboxamide], the half-maximal inhibitory concentration (IC50) fell in the range of 100 to 1000 nM. Consider `Cc1nc2c(N3CCC4(CNC4)C3)c(NC(=O)c3ccc(=O)n(-c4c(F)cccc4F)n3)ccc2n1C` [Example 85, 1-(2,6-difluorophenyl)-N-(1,2-dimethyl-4-(2,6-diazaspiro[3.4]octan-6-yl)-1H-benzo[d]imidazol-5-yl)-6-oxo-1,6-dihydropyridazine-3-carboxamide], for which the concentration for half-maximal inhibition (IC50) is under 100 nM. The figure for `Cc1nc2c(N(C)CC3CNC3)c(NC(=O)c3ccc(=O)n(-c4c(F)cccc4F)n3)ccc2n1C` [Example 86, N-(4-((azetidin-3-ylmethyl)(methyl)amino)-1,2-dimethyl-1H-benzo[d]imidazol-5-yl)-1-(2,6-difluorophenyl)-6-oxo-1,6-dihydropyridazine-3-carboxamide] is 100 to 1000 nM; for `Cn1ncc2c(N3C[C@@H]4C[C@H]3CN4)c(NC(=O)c3ccc(=O)n(-c4c(F)cccc4F)n3)ccc21` [Example 87, N-(4-((1S,4S)-2,5-diazabicyclo[2.2.1]heptan-2-yl)-1-methyl-1H-indazol-5-yl)-1-(2,6-difluorophenyl)-6-oxo-1,6-dihydropyridazine-3-carboxamide] it is 100 to 1000 nM; for `Cc1nc2c(N3CC[C@H](N)C3)c(NC(=O)c3ccc(=O)n(-c4c(F)cccc4F)n3)ccc2n1C1CCOCC1` [Example 88, (S)-N-(4-(3-aminopyrrolidin-1-yl)-2-methyl-1-(tetrahydro-2H-pyran-4-yl)-1H-benzo[d]imidazol-5-yl)-1-(2,6-difluorophenyl)-6-oxo-1,6-dihydropyridazine-3-carboxamide] it is under 100 nM.

`COCCn1c(C)nc2c(N3CC[C@H](N)C3)c(NC(=O)c3ccc(=O)n(-c4c(F)cccc4F)n3)ccc21` [Example 89, (S)-N-(4-(3-aminopyrrolidin-1-yl)-1-(2-methoxyethyl)-2-methyl-1H-benzo[d]imidazol-5-yl)-1-(2,6-difluorophenyl)-6-oxo-1,6-dihydropyridazine-3-carboxamide]: the IC50 is under 100 nM. Molecule `Cc1nc2c(N3CC[C@@](C)(N)C3)c(NC(=O)c3ccc(=O)n(-c4c(F)cccc4F)n3)ccc2n1C` [Example 90, (R)-N-(4-(3-amino-3-methylpyrrolidin-1-yl)-1,2-dimethyl-1H-benzo[d]imidazol-5-yl)-1-(2,6-difluorophenyl)-6-oxo-1,6-dihydropyridazine-3-carboxamide] displayed an IC50 of under 100 nM.

Molecule `Cc1nc2c(N3C[C@H](N)C4(CC4)C3)c(NC(=O)c3ccc(=O)n(-c4c(F)cccc4F)n3)ccc2n1C` [Example 91, (R)-N-(4-(7-amino-5-azaspiro[2.4]heptan-5-yl)-1,2-dimethyl-1H-benzo[d]imidazol-5-yl)-1-(2,6-difluorophenyl)-6-oxo-1,6-dihydropyridazine-3-carboxamide] showed an IC50 of under 100 nM. In the case of `Cc1nc2c(N3CC[C@@H](NC(=O)CN)C3)c(NC(=O)c3ccc(=O)n(-c4c(F)cccc4F)n3)ccc2n1C` [Example 92, (R)-N-(4-(3-(2-aminoacetamido)pyrrolidin-1-yl)-1,2-dimethyl-1H-benzo[d]imidazol-5-yl)-1-(2,6-difluorophenyl)-6-oxo-1,6-dihydropyridazine-3-carboxamide], the half-inhibitory concentration (IC50) was under 100 nM.
